Measurements reported in patent US20030087906A1, “NITROGEN SUBSTITUTED BIARYL PURINE DERIVATIVES AS POTENT ANTIPROLIFERATIVE AGENTS” (priority 2001, published 2003).
Where “and” joins values, the source holds several entries; their conditions need not be identical. Equal values may be shown once. Entries after “also recorded” stand apart in the source; their conditions may differ. Read-outs that look alike come from different tables or passages of the source.

What was measured:
CyclinE/cdk2 = CyclinE/cdk2 (Homo sapiens, UniProt P24941); assay: CyclinE/cdk2 protein kinase assay (histone H1 phosphorylation); conditions: 15 μM ATP, replicate experiments
CyclinA/cdk2 = CyclinA/cdk2 (Homo sapiens, UniProt P24941); assay: CyclinA/cdk2 protein kinase assay (histone H1 phosphorylation); conditions: IC50 CyclinA/cdk2, complex immunopurified from HeLa cells; 15 μM ATP; replicate experiments
CyclinB/cdk1 = biological target: T1, CyclinB/cdk1 (Homo sapiens, UniProt P06493); assay: CyclinB/cdk1 protein kinase assay (histone H1 phosphorylation); type: biochemical; conditions: complex immunopurified from HeLa cells; 15 μM ATP; replicate experiments
T1 construct: Monoclonal antibody against cyclinB (GNS1) is added to the supernatant; endogenous in cells
Method: HeLa cells are blocked at the G1/S border by culturing in the presence of 2 mM thymidine for 20 h. The cells are then rinsed 3×in phosphate buffered saline and resuspended in regular medium. After 4 h of culture, the mitotic blocker, nocodazole is added to a final concentration of 75 ng/ml. […] The lysate is then clarified by centrifugation at 10,000×g for 10 min. The supernatant is collected and diluted 1:5 with Lysis Buffer. Monoclonal antibody against cyclinB (GNS1) is added to the supernatant to a final concentration of 5 μg/ml and shaken at 4° C. for 2 h. The immune complexes are then collected by the addition of 200 μl of protein agarose beads for 1 h. The beads are washed 4×in lysis buffer and 1×in kinase assay buffer.
Duplicate assays were performed at each concentration.

HeLa S-3 cells = assay: Inhibition of cell growth of HeLa cells (SRB); type: cell-based, human; conditions: 2 days of treatment, replicate experiments
Method: Growth inhibition (GI50) values were measured with HeLa S-3 cells selected for growth on plastic. […] One day later, a control plate was fixed by addition of TCA to 5%. After five rinses with tap water the plate was air dried and stored at 4° C. Test compounds were added to the remaining plates at 10-fold dilutions between 0.01 and 100 μM. Two days later all plates were fixed as described above. Cells were then stained by the addition of 100 μl per well of 0.4% sulforhodamine B (SRB) in 1% acetic acid for 30 min at 4° C. Wells were then quickly rinsed 5×with acetic acid (1%) and allowed to air dry. The SRB was then solubilized by the addition of 100 μl per well of unbuffered 10 mM Tris base. Dye was quantified by measuring absorbance at 490 nm on a Molecular Devices kinetic microplate reader. Growth at each inhibitor concentration relative to the untreated control was calculated according to the following equation: percent growth=100×(T−To)/(C−To), where T was the average optical density (OD) of the test wells after 2 days of treatment, To was the average OD of the wells in the control plate on day 0 and C was the average OD of untreated wells. Plots of percent growth versus inhibitor concentration were used to determine the GI50.

[1] = tested on: Tumor Cells in Hollow Fibers; assay: NCI Hollow Fiber Assay (in vivo evaluation); conditions: for IP Score: IP fibers; for SC score: SC fibers
[2] = IC50 CyclinE/cdk2, complex immunopurified from HeLa cells

T1 sequence (P06493 whole entry): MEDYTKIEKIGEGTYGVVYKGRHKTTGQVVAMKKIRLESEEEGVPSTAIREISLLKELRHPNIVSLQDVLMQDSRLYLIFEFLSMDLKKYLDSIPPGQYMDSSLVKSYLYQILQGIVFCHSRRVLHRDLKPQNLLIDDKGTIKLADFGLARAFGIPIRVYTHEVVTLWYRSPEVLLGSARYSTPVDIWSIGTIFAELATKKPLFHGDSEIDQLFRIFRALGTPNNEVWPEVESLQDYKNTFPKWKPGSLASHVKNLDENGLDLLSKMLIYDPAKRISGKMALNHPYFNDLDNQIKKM
T1 sequence (P14635 whole entry partner): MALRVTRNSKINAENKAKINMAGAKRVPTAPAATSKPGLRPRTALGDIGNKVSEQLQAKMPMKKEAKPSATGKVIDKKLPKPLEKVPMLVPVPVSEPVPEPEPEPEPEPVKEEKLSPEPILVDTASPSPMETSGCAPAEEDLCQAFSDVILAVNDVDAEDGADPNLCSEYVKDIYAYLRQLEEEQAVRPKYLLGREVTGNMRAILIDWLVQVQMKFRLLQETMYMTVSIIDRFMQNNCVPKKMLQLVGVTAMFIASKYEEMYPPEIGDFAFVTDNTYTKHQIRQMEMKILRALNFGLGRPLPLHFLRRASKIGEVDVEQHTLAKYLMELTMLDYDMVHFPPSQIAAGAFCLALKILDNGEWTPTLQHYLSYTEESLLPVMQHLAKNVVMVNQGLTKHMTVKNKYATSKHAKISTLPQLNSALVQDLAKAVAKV

IC50 (CyclinE/cdk2; [2]) | IC50 (CyclinA/cdk2) | IC50 (CyclinB/cdk1) | GI50 (HeLa S-3 cells; Homo sapiens, HeLa S3, 48 h) [nM] | Compound | further results
60 nM | 600 nM and 800 nM | 2000 nM and 200 nM | – | CC(C)n1cnc2c(NCc3cccnc3)nc(N[C@@H]3CCCC[C@@H]3N)nc21 [Compound 126, reference compound] | IC50 (CyclinE/cdk2; read-out: IC50 CyclinE/cdk2, complex immunopurified from HeLa cells): 60 nM
4000 nM | 8000 nM | 6000 nM | – | CC(=O)N[C@H]1CC[C@H](Nc2nc(NCc3ccc(-c4cccc(F)c4)cc3)c3ncn(C(C)C)c3n2)CC1 [Compound 96] | –
70 nM | 200 nM | – | – | CC(C)n1cnc2c(NCc3ccc(I)cc3)nc(N[C@H]3CC[C@H](N)CC3)nc21 [Compound 11] | –
– | – | 7000 nM | – | CC(C)n1cnc2c(NCc3ccc(-c4ccc(F)c(Cl)c4)cc3)nc(N[C@H]3CC[C@H](N)CC3)nc21 [Compound 14] | GI50 (HeLa S-3 cells): 30 nM
9000 nM | > 10000 nM | > 10000 nM | 5000 | CC(=O)N[C@H]1CC[C@H](Nc2nc(NCc3ccc(-c4ccc(Cl)cc4)cc3)c3ncn(C(C)C)c3n2)CC1 [Compound 99] | –
2000 nM and 3000 nM | 5000 nM and 2000 nM and 1000 nM | 6000 nM | – | CC(C)n1cnc2c(NCc3ccc(-c4ccccc4)cc3)nc(N[C@@H]3CCCC[C@@H]3N)nc21 (racemic) [Compound 74] | –
– | – | 4000 nM | – | CC(C)n1cnc2c(NCc3ccc(-c4ccc(F)cc4)cc3)nc(N[C@H]3CC[C@H](N)CC3)nc21 [Compound 101] | –
15000 nM and 4000 nM | > 10000 nM | > 10000 nM | – | CC(C)n1cnc2c(NCc3ccc(-c4ccccc4)cc3)nc(NC3(CO)CCCC3)nc21 [Compound 53] | –
– | – | 7000 nM | 5000 | CC[C@H](CO)Nc1nc(NCc2ccc(-c3cccc(NC(C)=O)c3)cc2)c2ncn(C(C)C)c2n1 [Compound 5] | –
2000 nM and 300 nM and 900 nM | 4000 nM and 1000 nM and 800 nM | 4000 nM | – | Cc1ccc(-c2ccc(CNc3nc(N[C@H]4CC[C@H](N)CC4)nc4c3ncn4C(C)C)cc2)cc1 [Compound 13] | –
– | – | > 10000 nM | – | CC(C)n1cnc2c(NCc3ccc(-c4ccc(Cl)cc4)cc3)nc(N[C@H]3CC[C@H](N)CC3)nc21 [Compound 98] | –
– | – | – | 500 | Cc1ccc(-c2ccc(CNc3nc(N[C@H]4CC[C@H](N)CC4)nc4c3ncn4C(C)C)cc2)s1 [Compound 157] | –
2000 nM | 1000 nM and 4000 nM | – | – | CC(C)n1cnc2c(NCc3ccc(-c4ccccc4)cc3)nc(NC[C@H](C)N)nc21 [Compound 107] | –
– | – | – | 500 | CC(C)n1cnc2c(NCc3ccc(-c4cccc(F)c4)nc3)nc(N[C@H]3CC[C@H](NC(=O)CN)CC3)nc21 [Compound 233] | –
4000 nM | > 10000 nM | – | – | CC(=O)N[C@H]1CC[C@H](Nc2nc(NCc3ccc(-c4ccc(F)cc4)cc3)c3ncn(C(C)C)c3n2)CC1 [Compound 102] | –
4000 nM | > 10000 nM | > 10000 nM | 600 | CC(=O)N[C@H]1CC[C@H](Nc2nc(NCc3ccc(-c4ccc(F)c(Cl)c4)cc3)c3ncn(C(C)C)c3n2)CC1 [Compound 100] | –
> 10000 nM and 4000 nM and 2000 nM | > 10000 nM | > 10000 nM | – | CC(C)n1cnc2c(NCc3ccc(-c4ccccc4)cc3)nc(N[C@H]3CCCC[C@H]3NC(=O)Nc3ccccc3)nc21 [Compound 80] | –
2000 nM and 4000 nM | 11000 nM and 4000 nM | 12000 nM | – | CC(C)n1cnc2c(NCc3ccc(-c4ccccc4)cc3)nc(N[C@@H]3CCCC[C@H]3N)nc21 (racemic) [Compound 58] | –

Further lines, the compound ahead of its results:

Compound | IC50 (CyclinE/cdk2; [2]) | IC50 (CyclinA/cdk2) | IC50 (CyclinB/cdk1) | GI50 (HeLa S-3 cells; Homo sapiens, HeLa S3, 48 h) [nM] | further results
CC(=O)N[C@H]1CC[C@H](Nc2nc(NCc3ccc(-c4cccnc4)cc3)c3ncn(C(C)C)c3n2)CC1 [Compound 104] | 1000 nM | 7000 nM and 8000 nM | 2000 nM | 200 | –
CC(C)n1cnc2c(NCc3ccc(-c4cccc(F)c4)cc3)nc(N[C@H]3CC[C@H](N)CC3)nc21 [Compound 95] | – | – | 4000 nM | – | –
CC(=O)N[C@H]1CC[C@H](Nc2nc(NCc3ccc(-c4cccs4)cc3)c3ncn(C(C)C)c3n2)CC1 [Compound 112] | 2000 nM | 2000 nM | – | – | Cell Types Killed [1]: OVCAR-3; IP Score [1]: 18; SC score [1]: 2
CCn1cnc2c(Nc3cccc(Cl)c3)nc(N[C@H]3CCCC[C@H]3N)nc21 [Compound 125, reference compound] | 100 nM | 1000 nM | 600 nM | 3000 | –
CC(C)n1cnc2c(NCc3ccc(-c4cccc(Cl)c4)cc3)nc(N[C@H]3CC[C@H](N)CC3)nc21 [Compound 109] | 100 nM | 600 nM | – | – | –
CC(=O)N[C@H]1CC[C@H](Nc2nc(NCc3ccc(-c4cccc(Cl)c4)cc3)c3ncn(C(C)C)c3n2)CC1 [Compound 110] | 2000 nM | 600 nM | – | – | Cell Types Killed [1]: OVCAR-3; IP Score [1]: 14; SC score [1]: 0; GI50 (HeLa S-3 cells): 20 nM
CC(C)n1cnc2c(NCc3ccc(-c4ccccc4)nc3)nc(N[C@H]3CC[C@H](N)CC3)nc21 [Compound 86] | – | 900 nM and 700 nM and 400 nM and 600 nM | 2000 nM | – | Cell Types Killed [1]: OVCAR 3,; also recorded: OVCAR 5, H522; IP Score [1]: 38; SC score [1]: 0
CC(C)n1cnc2c(NCc3ccc(-c4ccccc4)cc3)nc(N[C@H]3CC[C@H](N)CC3)nc21 [Compound 75] | 3000 nM | 3000 nM | 6000 nM | – | –
CC(=O)N[C@H]1CC[C@H](Nc2nc(NCc3ccc(-c4ccc(C)cc4)cc3)c3ncn(C(C)C)c3n2)CC1 [Compound 97] | 3000 nM | > 10000 nM | – | 3000 | –
CCCN(CCC)[C@H]1CC[C@H](Nc2nc(NCc3ccc(-c4cc(C)cc(C)c4)cc3)c3ncn(C(C)C)c3n2)CC1 [Compound 152] | – | – | – | – | GI50 (HeLa S-3 cells): 700 nM and 300 nM
CC(C)n1cnc2c(NCc3ccc(-c4ccoc4)cc3)nc(N[C@H]3CC[C@H](N)CC3)nc21 [Compound 164] | – | – | – | 200 | –
CC(=O)N[C@H]1CC[C@H](Nc2nc(NCCc3ccc(-c4ccccc4)cc3)c3ncn(C(C)C)c3n2)CC1 [Compound 240] | – | – | – | – | GI50 (HeLa S-3 cells): 8000 nM
CC(=O)N[C@@H](C)CNc1nc(NCc2ccc(-c3ccccc3)cc2)c2ncn(C(C)C)c2n1 [Compound 108] | > 10000 nM | > 10000 nM | – | 3000 | –
CC(=O)N[C@H]1CC[C@H](Nc2nc(NCc3ccc(-c4cccc(F)c4)nc3)c3ncn(C(C)C)c3n2)CC1 [Compound 188] | – | – | – | – | GI50 (HeLa S-3 cells): 200 nM and 70 nM
CC(C)n1cnc2c(NCCc3ccc(-c4ccsc4)cc3)nc(N[C@H]3CC[C@H](NC(=O)OC(C)(C)C)CC3)nc21 [Compound 242] | – | – | – | – | GI50 (HeLa S-3 cells): > 10000 nM
CC(=O)N[C@H]1CC[C@H](Nc2nc(NCc3ccc(-c4ccsc4)nc3)c3ncn(C(C)C)c3n2)CC1 [Compound 124] | 800 nM | 2000 nM | – | – | Cell Types Killed [1]: OVCAR-3; IP Score [1]: 28; SC score [1]: 0
CN1CC[C@H](c2c(O)cc(O)c3c(=O)cc(-c4ccccc4Cl)oc23)[C@H](O)C1 [Flavopiridol, reference compound] | – | – | – | 180 | –
CCCN[C@H]1CC[C@H](Nc2nc(NCCOc3ccc(-c4ccccc4)cc3)c3ncn(C(C)C)c3n2)CC1 [Compound 250] | – | – | – | – | GI50 (HeLa S-3 cells): 6000 nM
CC(C)n1cnc2c(NCc3ccc(-c4cccc(F)c4)nc3)nc(N[C@H]3CC[C@H](NC(=O)CNC(=O)OC(C)(C)C)CC3)nc21 [Compound 232] | – | – | – | 300 | –
CC(Nc1nc(N[C@H]2CC[C@H](N)CC2)nc2c1ncn2C(C)C)c1ccc(-c2ccsc2)cc1 (stereo partly shown) [Compound 257] | – | – | – | 3000 | –
CC(=O)N[C@H]1CC[C@H](Nc2nc(NCc3ccc(-c4cccc(C)c4)cc3)c3ncn(C(C)C)c3n2)CC1 [Compound 178] | – | – | – | – | GI50 (HeLa S-3 cells): 200 nM
CC(=O)N[C@H]1CCCC[C@@H]1Nc1nc(NCc2ccc(-c3ccccc3)cc2)c2ncn(C(C)C)c2n1 [Compound 60] | 12000 nM and > 10000 nM | – | > 10000 nM | 7000 | –
CCN(C(C)=O)[C@H]1CC[C@H](Nc2nc(NCc3ccc(-c4ccccc4)cc3)c3ncn(C(C)C)c3n2)CC1 [Compound 267] | – | – | – | – | GI50 (HeLa S-3 cells): 800 nM and 600 nM
COc1cccc(-c2ccc(CNc3nc(N[C@H]4CC[C@H](NC(C)=O)CC4)nc4c3ncn4C(C)C)cc2)c1 [Compound 180] | – | – | – | – | GI50 (HeLa S-3 cells): 300 nM
CC(=O)N[C@H]1CC[C@H](Nc2nc(NCc3ccc(-c4ccc(C)s4)cc3)c3ncn(C(C)C)c3n2)CC1 [Compound 158] | – | – | – | – | GI50 (HeLa S-3 cells): 600 nM
CCCN[C@H]1CC[C@H](Nc2nc(NCc3ccc(-c4cc(C)cc(C)c4)cc3)c3ncn(C(C)C)c3n2)CC1 [Compound 151] | – | – | – | 800 | GI50 (HeLa S-3 cells): 600 nM
